Drawing on patent US11479533B2, “Inhibitors of Rho associated coiled-coil containing protein kinase” (KADMON CORPORATION, LLC, priority 2017, dated 2022), this text covers IC50 for 22 compounds.

Test [1] has as its target recombinant ROCK2 (amino acids 1-552) (Homo sapiens (Human), UniProt O75116). The experiment in a line: Z'-lyte kinase assay, ROCK2. The test is classed as biochemical. On the procedure:
Determination of compounds ROCK inhibitory activity in vitro (Z'lyte assay): recombinant ROCK1 (amino acids 1-535) and ROCK2 (amino acids 1-552) proteins were purchased from ThermoFisher Scientific. Compounds activities were measured by Z'-lyte kinase kit (ThermoFisher Scientific) and IC50s were calculated.
Compounds activities were measured by Z'-lyte kinase kit (ThermoFisher Scientific). […] IC50s were calculated using the GraphPad Prism software with kinase activities data that were collected from 9 points serial dilution of compounds treatment. The ROCK inhibition in A7R5 cells and NIH3T3 (Acta2-Luc) cells was performed as described above.
The percent inhibition rate was calculated by normalizing the kinase activity value obtained with compound treatment against DMSO control value and then applied to the equation, […]. IC50's were calculated using the nonlinear regression curve fit function of the GraphPad Prism software with kinase activities data measured with 9 points 2-fold serial dilution of compounds treatment.

Test [2] relates to ppMlc (T18/S19) levels in A7R5 cells. The experiment in a line: A7R5 in-cell ELISA assay (ppMlc). It is filed as cell-based, rat. The settings on record: Rattus norvegicus, A7R5, A7R5 cells, Table 2; read-out: pMLC IC50 (nM) A7R5. On the procedure:
Determination of compounds ROCK inhibitory activity in A7R5 cells: rat aortic smooth muscle cell line A7R5 cells were maintained and treated in DMEM medium with 10% of fetal bovine serum. Cells were seeded with density of 5,000 cells/well in 96-well plates for 24 hours and subsequently treated 90 min with testing compounds. Cells were then fixed and processed according to the In-Cell ELISA Colorimetric Detection Kit manual (Thermo Scientific).
A7R5 cells were treated with 9 points 2 fold serial dilution of compounds and ppMlc (T18/S19) levels were determined in order to calculate the cellular IC50s of the compounds.
An A7R5 in-cell ELISA assay was performed to determine ROCK inhibition of test articles. A7R5 cells were treated with 9 points 2-fold serial dilution of compounds and ppMlc (T18/S19) levels were determined to calculate cellular IC50 values of the compounds. […] A7R5 cells were treated with 9 points 2-fold serial dilution of compounds and ppMlc (T18/S19) levels were determined to calculate cellular IC50 values of the compounds using the nonlinear regression curve fit function of the GraphPad Prism software.

Test [3] has as its system ACTA2-promoter-driven-luciferase in NIH3T3 cells. The experiment in a line: NIH3T3 Acta2-promoter driven-luciferase assay. The settings on record: Mus musculus, plus TGFβ1, 24 hr, read-out: NIH3T3, Acta2-luc, IC50. It is filed as cell-based. On the procedure:
NIH3T3 cells Acta2-promoter driven-luciferase assay: A NIH3T3 cell line stably expressing a luciferase reporter driven by the human ACTA2 gene promoter (−1000-1 bp) was established (NIH3T3-Acta2-luciferase). The cells were plated to confluence and treated with the test compounds plus TGFβ1 for 24 hr. Cells were then lysed and luciferase activity was measured using the LightSwitch luciferase kit from Active Motif.
ROCK inhibitors can be effectively rank ordered by ACTA2-promoter-driven-luciferase reporter cell assay. NIH3T3 cells stably expressing ACTA2-promoter-driven-luciferase were applied to measure ROCK compounds functional IC50's in cells. Cells were plated in 96 well plates to confluence and treated with 9 points serial dilution of compounds in combination with TGFβ1 for 24 hr. Luciferase activities were measured and compound's IC50's were calculated using the nonlinear regression curve fit function of the GraphPad Prism software. Compounds of the invention gave in cell IC50's under 200 nM, see FIG. 1c.

recombinant ROCK2 (amino acids 1-552), sequence (O75116 1-552): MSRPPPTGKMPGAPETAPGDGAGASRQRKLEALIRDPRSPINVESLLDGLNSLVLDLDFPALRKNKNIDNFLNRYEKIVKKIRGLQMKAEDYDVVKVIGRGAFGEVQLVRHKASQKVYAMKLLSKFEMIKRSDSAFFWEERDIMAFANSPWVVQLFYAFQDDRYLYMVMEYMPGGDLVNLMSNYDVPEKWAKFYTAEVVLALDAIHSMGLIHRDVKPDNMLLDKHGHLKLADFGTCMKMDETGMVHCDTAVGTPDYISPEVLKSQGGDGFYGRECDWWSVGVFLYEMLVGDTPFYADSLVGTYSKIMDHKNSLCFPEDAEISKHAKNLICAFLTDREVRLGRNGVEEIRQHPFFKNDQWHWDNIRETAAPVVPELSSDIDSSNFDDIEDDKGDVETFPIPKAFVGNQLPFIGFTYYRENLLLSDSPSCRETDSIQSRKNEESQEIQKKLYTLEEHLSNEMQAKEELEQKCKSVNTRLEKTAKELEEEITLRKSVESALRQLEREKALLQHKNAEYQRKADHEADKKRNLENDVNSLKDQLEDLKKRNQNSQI

A word on the IC50: it is the concentration that inhibits the measured activity by half. Consider `CNC(C(=O)Nc1ccc(-c2cn[nH]c2)cc1)c1cccc(C(=O)OC)c1` (stereo not drawn) [Example 30, Methyl 3-(2-((4-(1H-pyrazol-4-yl)phenyl)amino)-1-(methylamino)-2-oxoethyl)benzoate], for which the IC50 in test [1] was 18 nM; in test [2] it was 247 nM; in test [3], over 5000 nM.

As for `CNC(C(=O)Nc1ccc(-c2cn[nH]c2)cc1)c1ccc(N(C)C)cc1` (stereo not drawn) [Example 31, N-(4-(1H-pyrazol-4-yl)phenyl)-2-(4-(dimethylamino)phenyl)-2-(methylamino)acetamide], the IC50 is 55 nM in test [1], 667 nM in test [2] and 1230 nM in test [3].

In the case of `CNC(C(=O)Nc1ccc(-c2cn[nH]c2)cc1)c1cccc(C(=O)O)c1` (stereo not drawn) [Example 32, 3-(2-((4-(1H-pyrazol-4-yl)phenyl)amino)-1-(methylamino)-2-oxoethyl)benzoic acid], the IC50 in test [1] is 31 nM; in test [2], over 5000 nM; in test [3] it was over 5000 nM.

Consider `CNC(C(=O)Nc1ccc(-c2cn[nH]c2)cc1)c1ccc(C(=O)OC)cc1` (stereo not drawn) [Example 34, methyl 4-(2-((4-(1H-pyrazol-4-yl)phenyl)amino)-1-(methylamino)-2-oxoethyl)benzoate], for which the IC50 in test [1] was 310 nM; in test [2], over 5000 nM; in test [3], over 5000 nM.

`CNC(C(=O)Nc1ccc(-c2cn[nH]c2)cc1)c1ccc2nc(C)[nH]c2c1` (stereo not drawn) [Example 35, N-(4-(1H-pyrazol-4-yl)phenyl)-2-(2-methyl-1H-benzo[d]imidazol-6-yl)-2-(methylamino)acetamide]: the figures for the IC50 in test [1], in test [2] and in test [3] were 486 nM, over 5000 nM and over 5000 nM, respectively.

Consider `COCCCNC(C(=O)Nc1ccc(-c2cn[nH]c2)cc1)c1cccc(OC)c1` (stereo not drawn) [Example 36, N-(4-(1H-pyrazol-4-yl)phenyl)-2-(3-methoxyphenyl)-2-((3-methoxypropyl)amino)acetamide], for which the results for the IC50 in test [1], in test [2] and in test [3] were 16 nM, 1580 nM and 1550 nM, respectively.

With `CCOCCNC(C(=O)Nc1ccc(-c2cn[nH]c2)cc1)c1cccc(OC)c1` (stereo not drawn) [Example 37, N-(4-(1H-pyrazol-4-yl)phenyl)-2-((2-ethoxyethyl)amino)-2-(3-methoxyphenyl)acetamide], the values for the IC50 in test [1], in test [2] and in test [3] were 37 nM, 977 nM and 2310 nM, respectively.

In the case of `COc1cccc(C(NCCCN(C)C)C(=O)Nc2ccc(-c3cn[nH]c3)cc2)c1` (stereo not drawn) [Example 38, N-(4-(1H-pyrazol-4-yl)phenyl)-2-((3-(dimethylamino)propyl)amino)-2-(3-methoxyphenyl)acetamide], the values for the IC50 in test [1], in test [2] and in test [3] were 8.7 nM, 338 nM and 1620 nM, respectively.

For the compound `COc1cccc(C(NCC(=O)N(C)C)C(=O)Nc2ccc(-c3cn[nH]c3)cc2)c1` (stereo not drawn) [Example 39, N-(4-(1H-pyrazol-4-yl)phenyl)-2-((2-(dimethylamino)-2-oxoethyl)amino)-2-(3-methoxyphenyl)acetamide], the values for the IC50 in test [1], in test [2] and in test [3] were 16 nM, 1670 nM and over 5000 nM, respectively.

Take `COc1cccc(C(NCCOC(C)C)C(=O)Nc2ccc(-c3cn[nH]c3)cc2)c1` (stereo not drawn) [Example 40, N-(4-(1H-pyrazol-4-yl)phenyl)-2-((2-isopropoxyethyl)amino)-2-(3-methoxyphenyl)acetamide]: the IC50 in test [1] came to 45 nM; in test [2], 632 nM; in test [3], 826 nM.

As for `COc1cccc(C(NCC(N)=O)C(=O)Nc2ccc(-c3cn[nH]c3)cc2)c1` (stereo not drawn) [Example 41, N-(4-(1H-pyrazol-4-yl)phenyl)-2-((2-amino-2-oxoethyl)amino)-2-(3-methoxyphenyl)acetamide], the IC50 is 12 nM in test [1], 1250 nM in test [2] and over 5000 nM in test [3].

Regarding `CNC(=O)CNC(C(=O)Nc1ccc(-c2cn[nH]c2)cc1)c1cccc(OC)c1` (stereo not drawn) [Example 44, N-(4-(1H-pyrazol-4-yl)phenyl)-2-(3-methoxyphenyl)-2-((2-(methylamino)-2-oxoethyl)amino)acetamide], the IC50 came to 42 nM in test [1], 2020 nM in test [2] and 2230 nM in test [3].

In the case of `COc1cccc(C(NCc2cn[nH]c2)C(=O)Nc2ccc(-c3cn[nH]c3)cc2)c1` (stereo not drawn) [Example 45, 2-(((1H-pyrazol-4-yl)methyl)amino)-N-(4-(1H-pyrazol-4-yl)phenyl)-2-(3-methoxyphenyl)acetamide], the IC50 in test [1] amounted to 53 nM; in test [2], 1360 nM; in test [3], 1460 nM.

`CCN(CCOC)C(C(=O)Nc1ccc(-c2cn[nH]c2)cc1)c1cccc(OC)c1` (stereo not drawn) [Example 46, N-(4-(1H-pyrazol-4-yl)phenyl)-2-(ethyl(2-methoxyethyl)amino)-2-(3-methoxyphenyl)acetamide]: the values for the IC50 in test [1], in test [2] and in test [3] were 107 nM, 1880 nM and 1200 nM, respectively.

In the case of `COCCN(C)C(C(=O)Nc1ccc(-c2cn[nH]c2)cc1)c1cccc(OC)c1` (stereo not drawn) [Example 47, N-(4-(1H-pyrazol-4-yl)phenyl)-2-((2-methoxyethyl)(methyl)amino)-2-(3-methoxyphenyl)acetamide], the IC50 in test [1] came out at 30 nM; in test [2], 321 nM; in test [3], 465 nM.

Regarding `COCCNC(C(=O)Nc1cc(F)c(-c2cn[nH]c2)cc1OCCN(C)C)c1cccc(OC)c1` (stereo not drawn) [Example 48, N-(2-(2-(dimethylamino)ethoxy)-5-fluoro-4-(1H-pyrazol-4-yl)phenyl)-2-((2-methoxyethyl)amino)-2-(3-methoxyphenyl)acetamide], the IC50 in test [1] was found to be 67 nM; in test [2], 314 nM; in test [3], 1010 nM.

Take `COc1cccc(C(NCCN2CCOCC2)C(=O)Nc2ccc(-c3cn[nH]c3)cc2)c1` (stereo not drawn) [Example 50, N-(4-(1H-pyrazol-4-yl)phenyl)-2-(3-methoxyphenyl)-2-((2-morpholinoethyl)amino)acetamide]: the 50% inhibitory concentration (IC50) in test [1] was 2.4 nM; in test [2], 97 nM; in test [3] it was 92 nM.

In the case of `COCCN(C)C(C(=O)Nc1cc(F)c(-c2cn[nH]c2)cc1OCCN(C)C)c1cccc(OC)c1` (stereo not drawn) [Example 51, N-(2-(2-(dimethylamino)ethoxy)-5-fluoro-4-(1H-pyrazol-4-yl)phenyl)-2-((2-methoxyethyl)(methyl)amino)-2-(3-methoxyphenyl)acetamide], the IC50 in test [1] is 8.1 nM; in test [2], 54 nM; in test [3] it was 101 nM.

As for `COc1cccc(C(NCCN2CCCC2)C(=O)Nc2ccc(-c3cn[nH]c3)cc2)c1` (stereo not drawn) [Example 52, N-(4-(1H-pyrazol-4-yl)phenyl)-2-(3-methoxyphenyl)-2-((2-(pyrrolidin-1-yl)ethyl)amino)acetamide], the IC50 was found to be 17 nM in test [1], 106 nM in test [2] and 675 nM in test [3].

Consider `COCC1(NC(C(=O)Nc2ccc(-c3cn[nH]c3)cc2)c2cccc(OC)c2)CC1` (stereo not drawn) [Example 53, N-(4-(1H-pyrazol-4-yl)phenyl)-2-((1-(methoxymethyl)cyclopropyl)amino)-2-(3-methoxyphenyl)acetamide], for which the IC50 was 31 nM in test [1], 759 nM in test [2] and 1260 nM in test [3].

Regarding `COc1cccc(C(NCCOCC(F)(F)F)C(=O)Nc2ccc(-c3cn[nH]c3)cc2)c1` (stereo not drawn) [Example 54, N-(4-(1H-pyrazol-4-yl)phenyl)-2-(3-methoxyphenyl)-2-((2-(2,2,2-trifluoroethoxy)ethyl)amino)acetamide], the values for the IC50 in test [1], in test [2] and in test [3] were 68 nM, 1520 nM and 2670 nM, respectively.

In the case of `COCCNC(C(=O)Nc1ccc(-c2cn[nH]c2)c(F)c1)c1cccc(OC)c1` (stereo not drawn) [Example 55, N-(3-fluoro-4-(1H-pyrazol-4-yl)phenyl)-2-((2-methoxyethyl)amino)-2-(3-methoxyphenyl)acetamide], the IC50 was determined as 17 nM in test [1], 506 nM in test [2] and 601 nM in test [3].
